The record followed here is the NIST ThermoML archive (doi:10.1016/j.fluid.2014.09.011).

± gives the expanded uncertainty stated by the source.

The data set in a line: activity coefficient (dimensionless); of the first substance listed, at infinite dilution; xn = mol fraction of the nth substance listed. As to conditions: 298.15 K; 238 kPa; Liquid; Chromatography; x1 = 0.
Regarding `CC(C)(C)Cl` [2-chloro-2-methylpropane] + C1CCCCC1, the activity coefficient is 1.2 ± 0.2.
Next, `CC(C)(C)Cl` [2-chloro-2-methylpropane] + CC(C)O: 3 ± 0.6.
Regarding `CC(C)(C)Cl` [2-chloro-2-methylpropane] + CC(O)C(C)O, the activity coefficient was determined as 12.3 ± 2.
Next, `CC(C)(C)Cl` [2-chloro-2-methylpropane] + CC(O)CCO: 18.1 ± 3.1; `CC(C)(C)Cl` [2-chloro-2-methylpropane] + CC(O)CO: 17.3 ± 2.1.
The same measure for `CC(C)(C)Cl` [2-chloro-2-methylpropane] + CCC(O)CO: 6.4 ± 0.5; for `CC(C)(C)Cl` [2-chloro-2-methylpropane] + CCCCCCC: 1.02 ± 0.08.
`CC(C)(C)Cl` [2-chloro-2-methylpropane] + CCCCCCCC: the activity coefficient was found to be 1.3 ± 0.2.
`CC(C)(C)Cl` [2-chloro-2-methylpropane] + CCCCCCO: the activity coefficient was determined as 2.4 ± 0.2.
The same measure for `CC(C)(C)Cl` [2-chloro-2-methylpropane] + CCCCCO: 2.4 ± 0.4; for `CC(C)(C)Cl` [2-chloro-2-methylpropane] + CCCCO: 2.4 ± 0.4; for `CC(C)(C)Cl` [2-chloro-2-methylpropane] + CCCO: 3.1 ± 0.4.
Next, `CC(C)(C)Cl` [2-chloro-2-methylpropane] + CCO: 4.5 ± 0.6; `CC(C)(C)Cl` [2-chloro-2-methylpropane] + CCOC(C)=O: 0.9 ± 0.2.
Take `CC(C)(C)Cl` [2-chloro-2-methylpropane] + CNC=O: the activity coefficient was found to be 6.3 ± 0.3.
Consider `CC(C)(C)Cl` [2-chloro-2-methylpropane] + CO, for which the activity coefficient is 6.1 ± 0.3.
Next, `CC(C)(C)Cl` [2-chloro-2-methylpropane] + COCCO: 2.9 ± 0.4.
Take `CC(C)(C)Cl` [2-chloro-2-methylpropane] + ClCCCl: the activity coefficient stood at 0.99 ± 0.1.
The same measure for `CC(C)(C)Cl` [2-chloro-2-methylpropane] + OCCO: 51.7 ± 10; for `CC(C)(C)Cl` [2-chloro-2-methylpropane] + OCCOCCO: 11.2 ± 2; for `CC(C)(C)Cl` [2-chloro-2-methylpropane] + OCCOCCOCCO: 6.8 ± 0.8.
With `CC(C)(C)Cl` [2-chloro-2-methylpropane] + c1ccccc1, the activity coefficient turned out to be 0.89 ± 0.08.
